Test results taken from patent publication US20200069592A1, “HSP90 INHIBITOR ORAL FORMULATIONS AND RELATED METHODS” (Samus Therapeutics, Inc., priority 2017, published 2020).

Assay: Particle size distribution (Cilas 1180) of as-received and jet milled API (Example 8)
Type: physicochemical
Description: Compound 2 API ‘as-received’ (Lots #2064-118-8, #2064-146-9, and # BPR-WS 1828-194D(2HCl)—B1-19) were analyzed for PSD on a Cilas 1180 particle size analyzer. Subsequently jet milled API batches B # L0441-20-JM51mmP1, B # L0441-20-JM51mmP2, B # L0441-20-JM51mmP3, and B # L0441-84-JM146mmP1 were also analyzed for PSD Approximately 50 mg Compound 2-2HCl was dispersed into 40 mL 0.2% (w/w) span 80 in n-hexanes (dispersant) and allowed to mix for 60 minutes. API was kept suspended in dispersant via stirring and sonication during test.
A jet milling study was performed on a batch of Compound 2 2HCl with jet mill Fluid Energy Asset #00170 outfitted with a 51 mm collection loop. Batches B # L0441-29-JM51mmP1, B # L0441-29-JM51mmP2, and B # L0441-29-JM51mmP3 were created from ˜10 g of Compound 2 lot # BPR-WS1828-194D(2HCl)-B1-19 subjected to 3 passes. Jet mill settings for grinder nozzle and pusher nozzle as follows: Pass 1 grinder nozzle=60 psi & pusher nozzle=80 psi, Pass 2 and 3 grinder nozzle=50 psi & pusher nozzle=70 psi.
After successfully jet milling on the R&D scale, B # L0441-84-JM146mmP1 was created from Compound 2-2HCl lot # BPR-17-87-B1-21d which was processed with a single pass to confirm GMP scale up conditions in the R&D laboratory by passing 85 g through the GMP jet mill Jet-O-Mizer Asset #01 16 Model 0101 outfitted with 146 mm collection loop using a standard nylon 4×48-inch collection sock inside a PTFE 4×48-inch sock to minimize fines loss. The pressure settings for the grinder and pusher nozzle were: Grinder nozzle 60 psi, Pusher nozzle 70 psi.

[1] = after jet milling, 51 mm collection loop

Structure (SMILES) | Particle size d10 [1] [μm] | Particle size d50 [1] [μm] | Particle size d90 [1] [μm] | Particle size span [1] [μm] | Particle size d90 (as quoted for the batches used in Example 9, listed as B # L0441-20-JM51mmP2) [um] | Particle size d90 (as quoted for the batches used in Example 9, listed as B # L0441-20-JM51mmP1) [um]
CC(C)(C)CNCCn1c(Sc2cc3c(cc2I)OCO3)nc2c(N)ncnc21 [B #132-L0441-20-JM51mmP2] | 2.3 | 5.6 | 11.7 | 9.4 | 11 | 
CC(C)(C)CNCCn1c(Sc2cc3c(cc2I)OCO3)nc2c(N)ncnc21 [B #132-L0441-20-JM51mmP3] | 2.0 | 4.8 | 10.1 | 8.1 |  | 
CC(C)(C)CNCCn1c(Sc2cc3c(cc2I)OCO3)nc2c(N)ncnc21 [B #132-L0441-20-JM51mmP1] | 3.1 | 7.9 | 17.3 | 14.2 |  | 17
